Patent US20260364134A1, “AGENT FOR SUPPRESSING AMYLOID BETA AGGREGATION/DEPOSITION AND AGENT FOR SUPPRESSING COGNITIVE FUNCTION DECLINE/IMPROVING COGNITIVE FUNCTION IN A SUBJECT” (KANEKA CORPORATION, priority 2023, published 2026)

Experiments:
Aβ = details: cited from earlier work
[1] = target: amyloid β (Aβ) in cerebral organoids (Homo sapiens, UniProt P05067); assay: Aβ aggregation/deposition suppression in cerebral organoids (QD-Aβ40/Aβ42, fluorescence microscopy); type: cell-based; details: Example 3, 24 hours after addition
Sequence of amyloid β (Aβ) in cerebral organoids (P05067 672-713): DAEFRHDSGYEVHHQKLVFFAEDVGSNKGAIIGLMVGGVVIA
Procedure: The end of a 1000-μl tip was cut off with sterilized scissors, and the organoids produced in Example 1 that had grown to a diameter of 1 mm or more were aspirated without disrupting them, and transferred to a U-bottom 96-well plate. […]
The next day, all of the culture supernatant was removed without aspirating the organoid, and 150 μl of fresh NbM medium was added. The cultured organoids were then observed and photographed under a fluorescence microscope.
Using a fluorescence microscope (BZ-X800 manufactured by KEYENCE CORPORATION), the cultured organoids in Example 2 were photographed in a bright field at a high resolution with an exposure time of 1/500 s to 1/2000 s, or at a high sensitivity with an exposure time of 1/2000 s to 1/5000 s, with Z stacks with a pitch of 20 μm. […] Subsequently, to observe the deposition of quantum dot-modified amyloid β in the cultured organoid, red fluorescence was observed using a TRITC lens at a high sensitivity with an exposure time of ¼ s to 1/8.5 s, and images were obtained according to the procedure described above.
Each of the images obtained above was analyzed as follows. […] The threshold of the loaded bright-field image was set to 200, and the organoid area (organoid surface area) was calculated. […]
The black balance level of image processing was adjusted for the fluorescent images of various tests. First, the negative control image was read out. […]

Aβ aggregation/deposition suppression rate in cerebral organoids ([1]; rosmarinic acid final 50 μM, QD-Aβ40 30 nM, Aβ42 10 μM): 3.9%
Compound: O=C(/C=C/c1ccc(O)c(O)c1)O[C@H](Cc1ccc(O)c(O)c1)C(=O)O [rosmarinic acid, Rosmarinic acid]
effect of suppressing Aβ aggregation (known) (Aβ): known to have an effect of suppressing Aβ aggregation
Effect of suppressing Aβ aggregation/deposition in cerebral organoids (in words) [1]: not a drug that has an effect of suppressing Aβ aggregation/deposition in cerebral organoids
